Results as given in ChEMBL document CHEMBL1201862, “PubChem BioAssay data set” (2004).
The source made the active and inactive calls.

What was measured:
[1] = off-target signal loss in HeLa-CEM21 co-culture – HeLa F-luc CTL cells, cherry-picked, counter-screen for HIV-1 Env fusion inhibitor project, dose response (AID 652040); type: functional, cell-based;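 note: potency for signal decrease marking cytotoxic or nonspecific inhibition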
[2] = inhibitors of HIV Env-driven cell fusion, dose response, cherry-pick (AID 652057); type: functional, cell-based
[3] = ZM109 Env clade C HIV-1 fusion inhibitors, dose response, HeLa effector, CEM target cells, luciferase, cherry-pick (AID 652058); type: functional, cell-based
[4] = inhibitors of clade B AD8 Env fusion, dose response, cell-based, cherry-pick (AID 652062); type: functional;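 note: luciferase signal from cell-cell fusion driven by HIV-1 clade B AD8 Env; potency is for inhibitors of fusion seen as a drop in luminescence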
HEK293 = assay: inhibitors of LMP1-driven NF-kB reporter, dose response, cell-based, HEK293, luciferase, cherry-pick (AID 588343); type: functional; conditions: Homo sapiens
P388 = assay: cells; type: functional; conditions: Mus musculus
P388/ADR = assay: cells; type: functional; conditions: Mus musculus
SN12K1 = assay: cells; type: functional; conditions: Homo sapiens
Paired box protein Pax-8 = Paired box protein Pax-8 (Homo sapiens, UniProt Q06710); assay: inhibitors of PAX8-driven TPO luciferase reporter, dose response, RMG-I cells, cherry-pick (AID 687027); type: functional, cell-based;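 note: luciferase reporter driven by Pax8 target thyroperoxidase promoter measured by SteadyGlo luminescence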
[5] = cytotoxicity in OVCAR8 ovarian cancer cells, dose response, PAX8 project, cell-based, plate reader, dry powder samples (AID 743197); type: functional; conditions: OVCAR-8
[6] = LGR2 antagonists, dose response, cell-based, HEK293, CRE-luciferase reporter, cherry pick, set 2 (AID 743343); type: functional;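 note: transfected cells were stimulated with diluted bursicon conditioned medium after compound addition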
[7] = MC4R antagonists, dose response, counter-screen for LGR2 antagonist project, cell-based, plate reader, cherry pick (AID 743444); type: functional;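 note: transfected HEK 293 cells stimulated with alpha-MSH peptide; potency of inhibitors of the alpha-MSH evoked signal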
BJ [8] = assay: cytotoxicity toward BJ-TERT-LT-ST fibroblasts, dose response, cell-based, RAS-independent, luminescence (AID 1935); type: functional; conditions: Homo sapiens;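 note: BJ fibroblasts immortalized with TERT plus LT and ST oncogenes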
BJ [9] = assay: cells; type: functional, cell-based; conditions: Homo sapiens
BJ [10] = assay: cytotoxicity toward BJ-TERT fibroblasts, dose response, cell-based, RAS-independent, luminescence (AID 1933); type: functional; conditions: Homo sapiens
[11] = cytotoxicity toward DRD oncogenic fibroblasts, dose response, cell-based, non-viral oncogenic, luminescence (AID 1934); type: functional; conditions: Homo sapiens
[12] = Shn3 3'UTR reporter inhibitors, dose response, cell-based, Clone20 osteoblasts, firefly luciferase, cherry-picked (AID 624132); type: functional;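 note: firefly luciferase luminescence from reporter carrying the Shn3 3'UTR in osteoblasts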
[13] = HepG2 cell cytotoxicity, dose response, cytotoxicity control for Shn3 inhibitor project, CellTiter-Glo, cherry-picked (AID 624134); type: functional, cell-based
[14] = control 3'UTR Renilla luciferase suppression, dose response, counter-screen for Shn3 inhibitor project, cell-based, Clone20-Shn3RL, cherry-picked (AID 624133); type: functional
[15] = target: Luciferin 4-monooxygenase (Photinus pyralis, UniProt P08659); assay: firefly luciferase enzyme inhibitors, dose response, biochemical, luminescence (AID 1891)
[16] = inhibitors of SNCA 5'UTR-driven reporter translation, confirmation, H4 neuroglioma cells, luminescence (AID 1988); type: functional, cell-based
[17] = inhibitors of firefly luciferase expression or activity, dose response, H4 neuroglioma cells, luminescence (AID 1990); type: functional, cell-based
[18] = Luminescence Cell-Based Dose Response HTS to Identify Inhibitors of 5'UTR Stem-Loop Driven Prion Protein mRNA Translation in H4 Neuroglioblastoma Cells. [Related pubchem assays: 1827 (Project Summary), 1813 (Primary HTS)]; type: functional
[19] = Luminescence Cell-Based Dose Confirmation HTS to Identify Inhibitors of Platelet Dense Granule Release. [Related pubchem assays: 1663 (Primary HTS), 1678 (Summary of Project)]; type: functional
Cytochrome P450 2C9 = Cytochrome P450 2C9 (Homo sapiens, UniProt P11712)
Cytochrome P450 2C9, sequence (P11712 whole entry): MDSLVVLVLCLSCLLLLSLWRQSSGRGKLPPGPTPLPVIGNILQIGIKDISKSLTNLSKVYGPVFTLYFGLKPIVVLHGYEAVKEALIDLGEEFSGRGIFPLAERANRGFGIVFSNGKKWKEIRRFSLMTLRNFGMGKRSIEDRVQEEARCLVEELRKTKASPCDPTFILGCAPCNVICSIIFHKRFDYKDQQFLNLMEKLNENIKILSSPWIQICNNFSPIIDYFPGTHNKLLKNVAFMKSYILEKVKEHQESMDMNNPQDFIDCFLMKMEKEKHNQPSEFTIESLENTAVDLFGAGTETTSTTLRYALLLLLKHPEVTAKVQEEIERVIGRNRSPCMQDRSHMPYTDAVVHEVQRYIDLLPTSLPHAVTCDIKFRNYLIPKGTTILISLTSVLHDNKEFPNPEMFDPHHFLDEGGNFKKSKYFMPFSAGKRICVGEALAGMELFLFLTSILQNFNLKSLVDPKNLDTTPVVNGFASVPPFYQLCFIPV

Luciferin 4-monooxygenase, sequence (P08659 whole entry): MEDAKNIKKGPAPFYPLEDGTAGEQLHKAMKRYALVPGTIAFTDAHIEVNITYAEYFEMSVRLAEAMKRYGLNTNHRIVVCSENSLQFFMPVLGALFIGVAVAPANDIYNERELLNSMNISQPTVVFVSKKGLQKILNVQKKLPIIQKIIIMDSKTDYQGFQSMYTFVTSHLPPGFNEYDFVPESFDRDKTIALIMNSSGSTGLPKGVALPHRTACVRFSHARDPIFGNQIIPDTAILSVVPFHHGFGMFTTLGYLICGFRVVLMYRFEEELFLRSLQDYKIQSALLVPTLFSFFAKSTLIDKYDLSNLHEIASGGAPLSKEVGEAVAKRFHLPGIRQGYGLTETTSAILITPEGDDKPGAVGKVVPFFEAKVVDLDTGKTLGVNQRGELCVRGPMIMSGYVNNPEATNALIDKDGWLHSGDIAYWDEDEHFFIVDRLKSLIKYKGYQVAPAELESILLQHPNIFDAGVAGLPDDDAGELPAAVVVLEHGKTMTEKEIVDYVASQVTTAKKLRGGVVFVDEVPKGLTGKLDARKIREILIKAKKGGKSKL
Paired box protein Pax-8, sequence (Q06710 whole entry): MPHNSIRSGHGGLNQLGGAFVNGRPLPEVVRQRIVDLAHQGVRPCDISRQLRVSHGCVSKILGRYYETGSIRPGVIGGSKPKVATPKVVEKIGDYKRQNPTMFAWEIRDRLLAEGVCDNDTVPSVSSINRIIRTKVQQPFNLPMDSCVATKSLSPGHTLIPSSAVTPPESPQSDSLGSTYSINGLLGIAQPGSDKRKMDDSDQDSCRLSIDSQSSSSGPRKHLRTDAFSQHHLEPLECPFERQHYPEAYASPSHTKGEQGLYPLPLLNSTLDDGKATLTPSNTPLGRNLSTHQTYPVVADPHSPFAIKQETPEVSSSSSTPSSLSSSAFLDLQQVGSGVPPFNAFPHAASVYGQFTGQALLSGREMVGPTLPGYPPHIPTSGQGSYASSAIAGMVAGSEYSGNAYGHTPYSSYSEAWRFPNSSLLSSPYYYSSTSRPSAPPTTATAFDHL

## C[C@H]1CN([C@@H](C)CO)C(=O)Cc2cc(NC(=O)Cc3ccccc3)ccc2O[C@H]1CN(C)S(=O)(=O)c1cccs1
[1]
  AC50: 2.4 µM (active)
[2]
  AC50: 1.48 µM (active)
[3]
  AC50: 2.26 µM (active)
[4]
  AC50: 3.35 µM (active)

## CCN1CCN(Cc2ccc(NC(=O)c3ccc(C)c(NC(=O)c4ccno4)c3)cc2C(F)(F)F)CC1
HEK293
  AC50: 0.0518 µM (active)

## CCOC(=O)C1=C(C(C)=O)CSC(c2ccccc2)=N1
P388
  GI50: > 100 µM (inactive)
P388/ADR
  GI50: 68.5 µM (inactive)
SN12K1
  GI50: > 100 µM (inactive)

## O=C(c1ccccc1O)c1cc(-c2ncc3c(=O)c4ccccc4oc3n2)c(-c2ccccc2O)[nH]c1=O
P388
  GI50: 19.7 µM (inactive)
P388/ADR
  GI50: 22.4 µM (inactive)
SN12K1
  GI50: 17.5 µM (inactive)

## COc1cccc(-c2nc3c(C(=O)NCCN(C)C)cccc3[nH]2)c1
P388
  GI50: 4.45 µM (inactive)
P388/ADR
  GI50: 13.7 µM (inactive)
SN12K1
  GI50: 12.4 µM (inactive)

## COC(=O)C(C/C=C(\C)c1ccccc1)C(C)=O (configuration not stated)
P388
  GI50: 27.2 µM (inactive)
P388/ADR
  GI50: 29 µM (inactive)
SN12K1
  GI50: 45.2 µM (inactive)

## COC(=O)[C@]1(c2ccc(N(C)C)cc2OC)C[C@@H]2CCCN(CCc3c1[nH]c1ccccc31)C2
P388
  GI50: 16.7 µM (inactive)
P388/ADR
  GI50: 18.1 µM (inactive)
SN12K1
  GI50: 17.4 µM (inactive)

## O=C(C[C@H]1C[C@@H]2c3cc(NS(=O)(=O)c4ccc(F)cc4)ccc3O[C@@H]2[C@@H](CO)O1)NCc1ccc(-c2ccccc2)cc1
Paired box protein Pax-8
  AC50: 7.31 µM (active)
[2]
  AC50: 23.1 µM (active)
[3]
  AC50: 9.89 µM (active)
[4]
  AC50: 19.4 µM (active)
[5]
  AC50: 4 µM (active)

## COc1ccc(OC)c(CN2C(=O)c3ccccc3C2c2nnnn2-c2c(C)cccc2C)c1 (configuration not stated)
[1]
  AC50: 19 µM (active)
[2]
  AC50: 4.69 µM (active)
[3]
  AC50: 3.93 µM (active)

## COc1cc(C2c3cc4c(cc3[C@@H](Nc3ccc(F)cc3)C3COC(=O)[C@H]23)OCO4)cc(OC)c1O (some centres not stated)
P388
  GI50: < 0.01 µM (active)
P388/ADR
  GI50: 0.09 µM (active)

## O=C(O)c1ccc(N/N=C/c2ccc3ncccc3c2)cc1
[6]
  AC50: 3.18 µM (active)
[7]
  AC50: 3.72 µM (active)
HEK293
  AC50: 2.54 µM (active)

## COc1c(/C=N/Nc2ccc([N+](=O)[O-])cc2[N+](=O)[O-])c(C)nn1-c1ccccc1
BJ [8]
  EC50: > 150 µM (inconclusive)
BJ [9]
  EC50: > 150 µM (not active)
BJ [10]
  EC50: 7.99 µM (active)
[11]
  EC50: 15.8 µM (active)

## Cc1ccccc1CN1CC2=C(CCN(Cc3ccccc3)C2=O)N2CCN=C12
[12]
  AC50: 2.41 µM (active)
[13]
  AC50: 3.31 µM (active)
[14]
  AC50: 29.6 µM (active)

## CC(C)(C)n1nc(-c2ccc(Cl)cc2)c2c(N)ncnc21
[15]
  EC50: 23.3 µM (active)
HEK293
  AC50: 12.2 µM (active)
[16]
  EC50: 6.21 µM (active)
[17]
  EC50: 7.3 µM (active)
[18]
  EC50: 12.4 µM (active)
[19]
  EC50: 5.58 µM (active)
Cytochrome P450 2C9
  AC50: 7.08 µM (inconclusive)
